{
  "source": "patent US20140235689A1",
  "about": "“FUNGICIDAL PYRAZOLES” (E I DU PONT DE NEMOURS AND COMPANY, priority 2013, published 2014)",
  "assay_type_in_all_cases": "in vivo",
  "key": {"Septoria tritici": {"system": "Septoria tritici", "test": "Test D: wheat leaf blotch, preventive spray on wheat seedlings", "conditions": "200 ppm test suspension, inoculated following day, visual rating, relative to controls", "method": "General protocol for preparing test suspensions for Tests A-D: the test compounds were first dissolved in acetone in an amount equal to 3% of the final volume and then suspended at the desired concentration (in ppm) in acetone and purified water (50/50 mix by volume) containing 250 ppm of the surfactant Trem® 014 (polyhydric alcohol esters). The resulting test suspensions were then used in Tests A-G. Each test was conducted in triplicate, and the results were averaged. Spraying a 200 ppm test suspension to the point of run-off on the test plants was the equivalent of a rate of 800 g/ha. Unless otherwise indicated, the rating values indicate a 200 ppm test suspension was used. (An asterisk “*” next to the rating value indicates a 40 ppm test suspension was used.) The test suspension was sprayed to the point of run-off on wheat seedlings. The following day the seedlings were inoculated with a spore suspension of Septoria tritici (the causal agent of wheat leaf blotch) and incubated in saturated atmosphere at 24° C. for 48 h. and then the seedlings were moved to a growth chamber at 20° C. for 19 additional days, after which time visual disease ratings were made. Results for Tests A-G are given in Table A. In the Table, a rating of 100 indicates 100% disease control and a rating of 0 indicates no disease control (relative to the controls). A hyphen (-) indicates no test results."}, "[1]": {"system": "Blumeria graminis f. sp. tritici", "test": "Test G: wheat powdery mildew, preventive spray on wheat seedlings", "conditions": "200 ppm test suspension, inoculated following day with spore dust, visual rating, relative to controls", "method": "General protocol for preparing test suspensions for Tests A-D: the test compounds were first dissolved in acetone in an amount equal to 3% of the final volume and then suspended at the desired concentration (in ppm) in acetone and purified water (50/50 mix by volume) containing 250 ppm of the surfactant Trem® 014 (polyhydric alcohol esters). The resulting test suspensions were then used in Tests A-G. Each test was conducted in triplicate, and the results were averaged. Spraying a 200 ppm test suspension to the point of run-off on the test plants was the equivalent of a rate of 800 g/ha. Unless otherwise indicated, the rating values indicate a 200 ppm test suspension was used. (An asterisk “*” next to the rating value indicates a 40 ppm test suspension was used.) The test suspension was sprayed to the point of run-off on wheat seedlings. The following day the seedlings were inoculated with a spore dust of Blumeria graminis f. sp. tritici (also known as Erysiphe graminis f. sp. tritici, the causal agent of wheat powdery mildew) and incubated in a growth chamber at 20° C. for 8 days, after which time visual disease ratings were made. Results for Tests A-G are given in Table A. In the Table, a rating of 100 indicates 100% disease control and a rating of 0 indicates no disease control (relative to the controls). A hyphen (-) indicates no test results."}, "Botrytis cinerea": {"system": "Botrytis cinerea", "test": "Test A: tomato Botrytis, preventive spray on tomato seedlings", "conditions": "200 ppm test suspension, inoculated following day, visual rating, relative to controls", "method": "General protocol for preparing test suspensions for Tests A-D: the test compounds were first dissolved in acetone in an amount equal to 3% of the final volume and then suspended at the desired concentration (in ppm) in acetone and purified water (50/50 mix by volume) containing 250 ppm of the surfactant Trem® 014 (polyhydric alcohol esters). The resulting test suspensions were then used in Tests A-G. Each test was conducted in triplicate, and the results were averaged. Spraying a 200 ppm test suspension to the point of run-off on the test plants was the equivalent of a rate of 800 g/ha. Unless otherwise indicated, the rating values indicate a 200 ppm test suspension was used. (An asterisk “*” next to the rating value indicates a 40 ppm test suspension was used.) The test suspension was sprayed to the point of run-off on tomato seedlings. The following day the seedlings were inoculated with a spore suspension of Botrytis cinerea (the causal agent of tomato Botrytis) and incubated in saturated atmosphere at 20° C. for 48 h, and then moved to a growth chamber at 24° C. for 3 additional days, after which time visual disease ratings were made. Results for Tests A-G are given in Table A. In the Table, a rating of 100 indicates 100% disease control and a rating of 0 indicates no disease control (relative to the controls). A hyphen (-) indicates no test results."}, "[2]": {"system": "Puccinia recondita f. sp. tritici", "test": "Test F: wheat leaf rust, preventive spray on wheat seedlings", "conditions": "200 ppm test suspension, inoculated following day, visual rating, relative to controls", "method": "General protocol for preparing test suspensions for Tests A-D: the test compounds were first dissolved in acetone in an amount equal to 3% of the final volume and then suspended at the desired concentration (in ppm) in acetone and purified water (50/50 mix by volume) containing 250 ppm of the surfactant Trem® 014 (polyhydric alcohol esters). The resulting test suspensions were then used in Tests A-G. Each test was conducted in triplicate, and the results were averaged. Spraying a 200 ppm test suspension to the point of run-off on the test plants was the equivalent of a rate of 800 g/ha. Unless otherwise indicated, the rating values indicate a 200 ppm test suspension was used. (An asterisk “*” next to the rating value indicates a 40 ppm test suspension was used.) The test suspension was sprayed to the point of run-off on wheat seedlings. The following day the seedlings were inoculated with a spore suspension of Puccinia recondita f. sp. tritici (the causal agent of wheat leaf rust) and incubated in a saturated atmosphere at 20° C. for 24 h, and then moved to a growth chamber at 20° C. for 6 days, after which time visual disease ratings were made. Results for Tests A-G are given in Table A. In the Table, a rating of 100 indicates 100% disease control and a rating of 0 indicates no disease control (relative to the controls). A hyphen (-) indicates no test results."}, "Alternaria solani": {"system": "Alternaria solani", "test": "Test B: tomato early blight, preventive spray on tomato seedlings", "conditions": "200 ppm test suspension, inoculated following day, visual rating, relative to controls", "method": "General protocol for preparing test suspensions for Tests A-D: the test compounds were first dissolved in acetone in an amount equal to 3% of the final volume and then suspended at the desired concentration (in ppm) in acetone and purified water (50/50 mix by volume) containing 250 ppm of the surfactant Trem® 014 (polyhydric alcohol esters). The resulting test suspensions were then used in Tests A-G. Each test was conducted in triplicate, and the results were averaged. Spraying a 200 ppm test suspension to the point of run-off on the test plants was the equivalent of a rate of 800 g/ha. Unless otherwise indicated, the rating values indicate a 200 ppm test suspension was used. (An asterisk “*” next to the rating value indicates a 40 ppm test suspension was used.) The test suspension was sprayed to the point of run-off on tomato seedlings. The following day the seedlings were inoculated with a spore suspension of Alternaria solani (the causal agent of tomato early blight) and incubated in a saturated atmosphere at 27° C. for 48 h, and then moved to a growth chamber at 20° C. for 5 days, after which time visual disease ratings were made. Results for Tests A-G are given in Table A. In the Table, a rating of 100 indicates 100% disease control and a rating of 0 indicates no disease control (relative to the controls). A hyphen (-) indicates no test results."}, "[3]": {"system": "Puccinia recondita f. sp. tritici", "test": "Test E: wheat leaf rust, spray after inoculation (curative) on wheat seedlings", "conditions": "200 ppm test suspension, wheat seedlings sprayed after inoculation, visual rating, relative to controls", "method": "General protocol for preparing test suspensions for Tests A-D: the test compounds were first dissolved in acetone in an amount equal to 3% of the final volume and then suspended at the desired concentration (in ppm) in acetone and purified water (50/50 mix by volume) containing 250 ppm of the surfactant Trem® 014 (polyhydric alcohol esters). The resulting test suspensions were then used in Tests A-G. Each test was conducted in triplicate, and the results were averaged. Spraying a 200 ppm test suspension to the point of run-off on the test plants was the equivalent of a rate of 800 g/ha. Unless otherwise indicated, the rating values indicate a 200 ppm test suspension was used. (An asterisk “*” next to the rating value indicates a 40 ppm test suspension was used.) Wheat seedlings were inoculated with a spore suspension of Puccinia recondita f. sp. tritici (the causal agent of wheat leaf rust) and incubated in a saturated atmosphere at 20° C. for 24 h, and then moved to a growth chamber at 20° C. for 2 days. After 2 days, the test suspension was sprayed to the point of run-off on the wheat seedlings, and then the seedlings were moved back to the growth chamber at 20° C. for 4 days. Upon removal, visual disease ratings were made. […]"}, "Septoria nodorum": {"system": "Septoria nodorum", "test": "Test C: Septoria glume blotch, preventive spray on wheat seedlings", "conditions": "200 ppm test suspension, inoculated following day, visual rating, relative to controls", "method": "General protocol for preparing test suspensions for Tests A-D: the test compounds were first dissolved in acetone in an amount equal to 3% of the final volume and then suspended at the desired concentration (in ppm) in acetone and purified water (50/50 mix by volume) containing 250 ppm of the surfactant Trem® 014 (polyhydric alcohol esters). The resulting test suspensions were then used in Tests A-G. Each test was conducted in triplicate, and the results were averaged. Spraying a 200 ppm test suspension to the point of run-off on the test plants was the equivalent of a rate of 800 g/ha. Unless otherwise indicated, the rating values indicate a 200 ppm test suspension was used. (An asterisk “*” next to the rating value indicates a 40 ppm test suspension was used.) The test suspension was sprayed to the point of run-off on wheat seedlings. The following day the seedlings were inoculated with a spore suspension of Septoria nodorum (the causal agent of Septoria glume blotch) and incubated in a saturated atmosphere at 24° C. for 48 h, and then moved to a growth chamber at 20° C. for 9 days, after which time visual disease ratings were made. Results for Tests A-G are given in Table A. In the Table, a rating of 100 indicates 100% disease control and a rating of 0 indicates no disease control (relative to the controls). A hyphen (-) indicates no test results."}},
  "data": [
    {"smiles": "Cc1nn(C)c(C(N)c2ccc(F)cc2F)c1-c1c(F)cccc1F", "note": "(stereo not drawn) [Compound 3, α-(2,4-difluorophenyl)-4-(2,6-difluorophenyl)-1,3-dimethyl-1H-pyrazol-5-methanamine]", "values": [
      {"measurement": "Test D disease control rating (100 = 100% disease control, 0 = no disease control)", "setting": "Septoria tritici", "value": 100},
      {"measurement": "Test G disease control rating (100 = 100% disease control, 0 = no disease control)", "setting": "[1]", "value": 98},
      {"measurement": "Test A disease control rating (100 = 100% disease control, 0 = no disease control)", "setting": "Botrytis cinerea", "value": 98},
      {"measurement": "Test F disease control rating (100 = 100% disease control, 0 = no disease control)", "setting": "[2]", "value": 99}
    ]},
    {"smiles": "CNC(c1ccc(F)cc1F)c1c(-c2c(F)cccc2F)c(C)nn1C", "note": "(stereo not drawn) [Compound 2, α-(2,4-difluorophenyl)-4-(2,6-difluorophenyl)-N,1,3-trimethyl-1H-pyrazol-5-methanamine]", "values": [
      {"measurement": "Test B disease control rating (100 = 100% disease control, 0 = no disease control)", "setting": "Alternaria solani", "value": 0},
      {"measurement": "Test E disease control rating (100 = 100% disease control, 0 = no disease control)", "setting": "[3]", "value": 0},
      {"measurement": "Test D disease control rating (100 = 100% disease control, 0 = no disease control)", "setting": "Septoria tritici", "value": 99},
      {"measurement": "Test G disease control rating (100 = 100% disease control, 0 = no disease control)", "setting": "[1]", "value": 82},
      {"measurement": "Test C disease control rating (100 = 100% disease control, 0 = no disease control)", "setting": "Septoria nodorum", "value": 0},
      {"measurement": "Test F disease control rating (100 = 100% disease control, 0 = no disease control)", "setting": "[2]", "value": 0}
    ]},
    {"smiles": "CSC(c1ccc(F)cc1F)c1c(-c2c(F)cccc2F)c(C)nn1C", "note": "(centres unmarked) [Compound 4, 4-(2,6-difluorophenyl)-5-[(2,4-difluorophenyl)(methylthio)methyl]-1,3-dimethyl-1H-pyrazole]", "values": [
      {"measurement": "Test B disease control rating (100 = 100% disease control, 0 = no disease control)", "setting": "Alternaria solani", "value": 0},
      {"measurement": "Test E disease control rating (100 = 100% disease control, 0 = no disease control)", "setting": "[3]", "value": 9},
      {"measurement": "Test D disease control rating (100 = 100% disease control, 0 = no disease control)", "setting": "Septoria tritici", "value": 99},
      {"measurement": "Test G disease control rating (100 = 100% disease control, 0 = no disease control)", "setting": "[1]", "value": 82},
      {"measurement": "Test A disease control rating (100 = 100% disease control, 0 = no disease control)", "setting": "Botrytis cinerea", "value": 31},
      {"measurement": "Test C disease control rating (100 = 100% disease control, 0 = no disease control)", "setting": "Septoria nodorum", "value": 0},
      {"measurement": "Test F disease control rating (100 = 100% disease control, 0 = no disease control)", "setting": "[2]", "value": 85}
    ]}
  ]
}
